# Non-standard residues stand in square brackets, D forms with d. No end group written: not given here.
# What was measured:
# [1] = test system: EpiAirway™ Cell Membrane (mucosal epithelial cell layer); assay: Transepithelial electrical resistance (TER), EpiAirway in vitro epithelial tissue model; type: cell-based; settings: for Relative TER Decrease: Table 8, amino acid substitutions; for Relative TER Decrease / TER(x)/TER(159) +/− SEM* / TER(x)/TER(159) +/− SEM: relative to PN159; for TER(x)/TER(159) +/− SEM*: mean values from multiple repeats; for TER(x)/TER(159) +/− SEM: Table 6, D-amino acid substitutions
# From the text: One “kit” consists of 24 units.
# A. Respiratory airway epithelial cells form tight junctions in vivo as well as in vitro, and thereby restrict the flow of solutes across the tissue. These junctions confer a transepithelial resistance of several hundred ohms×cm^2 in excised airway tissues. In the MatTek EpiAirway™ units, the transepithelial electrical resistance (TER) is reported by the manufacturer to be routinely around 1000 ohms×cm^2. […] The porous membrane-bottomed units without cells, conversely, provide only minimal transmembrane resistance (approximately 5-20 ohms×cm^2).
# B. Accurate determinations of TER require that the electrodes of the ohmmeter be positioned over a significant surface area above and below the membrane, and that the distance of the electrodes from the membrane be reproducibly controlled. The method for TER determination recommended by MatTek and employed for all experiments herein employs an “EVOM”™ epithelial voltohmmeter and an “ENDOHM”™ tissue resistance measurement chamber from World Precision Instruments, Inc., Sarasota, Fla.
# D. Determinations of TER are made with 1.5 mL of PBS in the chamber and 350 μL of PBS in the membrane-bottomed unit being measured. The top electrode is adjusted to a position just above the membrane of a unit containing no cells (but containing 350 μL of PBS) and then fixed to ensure reproducible positioning. The resistance of a cell-free unit is typically 5-20 ohms×cm^2 (“background resistance”).
# G. The unit is gently blotted free of excess PBS on its exterior surface only before being placed into the chamber (containing a fresh 1.5 mL aliquot of PBS). An aliquot of 350 μL PBS is added to the unit before the top electrode is placed on the chamber and the TER is read on the EVOM meter.
# I. The units are read in the following sequence: all sham-treated controls, followed by all formulation-treated samples, followed by a second TER reading of each of the sham-treated controls. All TER values are reported as a function of the surface area of the tissue.
# TER was calculated as: TER=(R1−Rb)×A Where R1 is resistance of the insert with a membrane, Rb is the resistance of the blank insert, and A is the area of the membrane (0.6 cm^2). The effect of pharmaceutical formulations comprising intranasal delivery-enhancing agents, for example, permeabilizing peptides as measured by TER across the EpiAirway™ Cell Membrane (mucosal epithelial cell layer). Permeabilizing peptides are applied to the EpiAirway™ Cell Membrane at a concentration of 1.0 mM. A decrease in TER value relative to the control value (control=approximately 1000 ohms-cm^2; normalized to 100.) indicates a decrease in cell membrane resistance and an increase in mucosal epithelial cell permeability.
# The formulation pH was fixed at 4.5.
# [2] = test system: EpiAirway™ Cell Membrane (mucosal epithelial cell layer); assay: Permeation kinetics across the in vitro epithelial tissue model; settings: for Perm(x)/Perm(159) +/− SEM* / Perm(x)/Perm(159) +/− SEM: relative to PN159; for Perm(x)/Perm(159) +/− SEM*: mean values from multiple repeats; for permeability enhancement (in words): PN159 analogues compared with PN159; for Perm(x)/Perm(159) +/− SEM: Table 6, D-amino acid substitutions
# Description: The EpiAirway™ system was developed by MatTek Corp (Ashland, Mass.) as a model of the pseudostratified epithelium lining the respiratory tract. The epithelial cells are grown on porous membrane-bottomed cell culture inserts at an air-liquid interface, which results in differentiation of the cells to a highly polarized morphology. The apical surface is ciliated with a microvillous ultrastructure and the epithelium produces mucus (the presence of mucin has been confirmed by immunoblotting). The inserts have a diameter of 0.875 cm, providing a surface area of 0.6 cm^2. The cells are plated onto the inserts at the factory approximately three weeks before shipping. One “kit” consists of 24 units.
# A. A “kit” of 24 EpiAirway™ units can routinely be employed for evaluating five different formulations, each of which is applied to quadruplicate wells. Each well is employed for determination of permeation kinetics (4 time points), transepithelial electrical resistance (TER). An additional set of wells is employed as controls, which are sham treated during determination of permeation kinetics, but are otherwise handled identically to the test sample-containing units for determinations of transepithelial resistance and viability.
# B. In all experiments, the mucosal delivery formulation to be studied is applied to the apical surface of each unit in a volume of 100 μL, which is sufficient to cover the entire apical surface. An appropriate volume of the test formulation at the concentration applied to the apical surface (no more than 100 μL is generally needed) is set aside for subsequent determination of concentration of the active material by ELISA or other designated assay.
# D. In order to minimize potential sources of error and avoid any formation of concentration gradients, the units are transferred from one 0.9 mL-containing well to another at each time point in the study. These transfers are made at the following time points, based on a zero time at which the 100 μL volume of test material was applied to the apical surface: 15 minutes, 30 minutes, 60 minutes, and 120 minutes.
# F. At the completion of each time point, the medium is removed from the well from which each unit was transferred, and aliquotted into two tubes (one tube receives 700 μL and the other 200 μL) for determination of the concentration of permeated test material and, in the event that the test material is cytotoxic, for release of the cytosolic enzyme, lactate dehydrogenase, from the epithelium. These samples are kept in the refrigerator if the assays are to be conducted within 24 hours, or the samples are subaliquotted and kept frozen at −80° C. until thawed once for assays. Repeated freeze-thaw cycles are to be avoided.
# EIA kit (p/n S-1178(EIAH6101) was purchased from Peninsula Laboratories Inc. (Division of BACHEM, San Carlos, Calif., 800-922-1516). 17×120 mm polypropylene conical tubes (p/n 352097, Falcon, Franklin Lakes, N.J.) were used for all sample preparations. Eight standards were used for PTH quantitation. The rest of the assay procedure was the same as the kit inserts.
# The instant study was designed to evaluate the effect of PN159 itself or in combination with additional permeation enhancers on PTH permeation. The PN159 concentrations evaluated are 25, 50, and 100 μM. The additional permeation enhancers are 45 mg/ml M-β-CD, 1 mg/ml DDPC, and 1 mg/ml EDTA. Sorbitol was used as a tonicifier (146-190 mM) to adjust the osmolarity of formulations to 220 mOsm/kg. The formulation pH was fixed at 4.5. PTH was chosen as a model peptide in this example. 2 mg/ml PTH was combined with PN159 with or without additional permeation enhancers. The combination was tested using an in vitro epithelial tissue model to monitor PTH permeation, transepithelial electrical resistance (TER), and the cytotoxicity of the formulation by LDH assay.
# The effect of PN159 on permeation of MC-4RA was evaluated in this study.
substance,measurement,setting,value
H-KLALKLALKLNLKAALKLA-NH2 [PN448],Relative TER Decrease,[1],0.4
NH2-KALAALLKKAAKLLAALK-amide (H-KALAALLKKAAKLLAALK-NH2) [PN442],TER(x)/TER(159) +/− SEM*,"[1]; Table 9, hydrophobic faces",0.93 +/− 0.03
same,Perm(x)/Perm(159) +/− SEM*,"[2]; Table 9, hydrophobic faces",0.81 +/− 0.03
NH2-KALAALLKKLAKLLAALK-amide (H-KALAALLKKLAKLLAALK-NH2) [PN444],TER(x)/TER(159) +/− SEM*,"[1]; Table 9, hydrophobic faces",0.82 +/− 0.05
same,Perm(x)/Perm(159) +/− SEM*,"[2]; Table 9, hydrophobic faces",0.41 +/− 0.08
NH2-KALKLKAALALLAKLKLA-amide (H-KALKLKAALALLAKLKLA-NH2) [PN424],TER(x)/TER(159) +/− SEM*,"[1]; Table 9, hydrophobic faces",0.59 +/− 0.07
same,Perm(x)/Perm(159) +/− SEM*,"[2]; Table 9, hydrophobic faces",0.20 +/− 0.04
NH2-KLAAALLKKAKKLAAALL-amide (H-KLAAALLKKAKKLAAALL-NH2) [PN441],TER(x)/TER(159) +/− SEM*,"[1]; Table 9, hydrophobic faces",0.54 +/− 0.04
same,Perm(x)/Perm(159) +/− SEM*,"[2]; Table 9, hydrophobic faces",0.35 +/− 0.04
NH2-KLALKLALKALKAA-amide (H-KLALKLALKALKAA-NH2) [PN417],Perm(x)/Perm(159) +/− SEM*,"[2]; Example 7, length changes",0.04
NH2-KLALKLALKALKAALK-amide (H-KLALKLALKALKAALK-NH2) [PN418],TER(x)/TER(159) +/− SEM*,"[1]; Example 7, length changes",1.05 +/− 0.05
same,Perm(x)/Perm(159) +/− SEM*,"[2]; Example 7, length changes",0.64
NH2-KLALKLALKALKAALKLALK-amide (H-KLALKLALKALKAALKLALK-NH2) [PN419],TER(x)/TER(159) +/− SEM*,"[1]; Example 7, length changes",1.23 +/− 0.01
same,Perm(x)/Perm(159) +/− SEM*,"[2]; Example 7, length changes",0.74
NH2-KLALKLALKALKAALKLALKLA-amide (H-KLALKLALKALKAALKLALKLA-NH2) [PN420],TER(x)/TER(159) +/− SEM*,"[1]; Example 7, length changes",0.77 +/− 0.05
same,Perm(x)/Perm(159) +/− SEM*,"[2]; Example 7, length changes",0.24
NH2-KLALKLALKALKAALKLALKLALK-amide (H-KLALKLALKALKAALKLALKLALK-NH2) [PN421],TER(x)/TER(159) +/− SEM*,"[1]; Example 7, length changes",0.74 +/− 0.11
same,Perm(x)/Perm(159) +/− SEM*,"[2]; Example 7, length changes",0.17
NH2-KLALKLALKALKAALKLALKLALKAL-amide (H-KLALKLALKALKAALKLALKLALKAL-NH2) [PN422],TER(x)/TER(159) +/− SEM*,"[1]; Example 7, length changes",0.47 +/− 0.07
same,Perm(x)/Perm(159) +/− SEM*,"[2]; Example 7, length changes",0.07
"NH2-KLAWKLALKALKAALKLA-amide (H-KLAWKLALKALKAALKLA-NH2) [PN0425, Single Tryptophan]",Relative TER Decrease,[1],1.0
"NH2-KLAWKLALKALKAAWKLA-amide (H-KLAWKLALKALKAAWKLA-NH2) [PN0427, Two Tryptophan]",Relative TER Decrease,[1],1.0
"NH2-KLAWKLAWKALKAAWKLA-amide (KLAWKLAWKALKAAWKLA-NH2) [PN028, Three Tryptophan]",Relative TER Decrease,[1],0.7
NH2-KLaLKlALkAlkAALkLA-amide (H-KL[dA]LK[dL]AL[dK]A[dL][dK]AAL[dK]LA-NH2) [PN434],TER reduction (in words),[1]; PN159 analogues compared with PN159,null activities
same,TER(x)/TER(159) +/− SEM,[1],0.12 +/− 0.01
same,permeability enhancement (in words),[2],null activities
same,Perm(x)/Perm(159) +/− SEM,[2],0.02 +/− 0.00
"NH2-LKLLKKLLKKLLKLL-amide (H-LKLLKKLLKKLLKLL-NH2) [PN406, Leucine and Lysine rich]",Relative TER Decrease,[1],0.9
"NH2-LKTLATALTKLAKTLTTL-amide (H-LKTLATALTKLAKTLTTL-NH2) [PN443, Threonine]",Relative TER Decrease,[1],0.3
NH2-LKlLKkLlkKLLkLL-amide (H-LK[dL]LK[dK]L[dL][dK]KLL[dK]LL-NH2) [PN407],TER(x)/TER(159) +/− SEM,[1],1.08 +/− 0.01
same,Relative TER Decrease,[1],1.1
same,permeability enhancement (in words),[2],minor but statistically significant improvement on permeability
same,Perm(x)/Perm(159) +/− SEM,[2],1.20 +/− 0.05
"NH2-RLALRLALRALRAALRLA-amide (H-RLALRLALRALRAALRLA-NH2) [PN394, Argenine]",Relative TER Decrease,[1],0.7
"NH2-RLAWRLALRALRAALRLA-amide (H-RLAWRLALRALRAALRLA-NH2) [PN395, Argenine and Single Tryptophan]",Relative TER Decrease,[1],0.8
NH2-alklaaklaklalklalk-amide (ALKLAAKLAKLALKLALK; all D-amino acids; C-terminal amide) [PN408],TER(x)/TER(159) +/− SEM,[1],1.05 +/− 0.01
same,Perm(x)/Perm(159) +/− SEM,[2],1.16 +/− 0.07
NH2-klalklalkalkaalkla-amide (H-[dK][dL][dA][dL][dK][dL][dA][dL][dK][dA][dL][dK][dA][dA][dL][dK][dL][dA]-NH2; SMILES CC(C)C[C@@H](NC(=O)[C@H](N)CCCCN)C(=O)N[C@H](C)C(=O)N[C@H](CC(C)C)C(=O)N[C@H](CCCCN)C(=O)N[C@H](CC(C)C)C(=O)N[C@H](C)C(=O)N[C@H](CC(C)C)C(=O)N[C@H](CCCCN)C(=O)N[C@H](C)C(=O)N[C@H](CC(C)C)C(=O)N[C@H](CCCCN)C(=O)N[C@H](C)C(=O)N[C@H](C)C(=O)N[C@H](CC(C)C)C(=O)N[C@H](CCCCN)C(=O)N[C@H](CC(C)C)C(=O)N[C@H](C)C(N)=O) [PN393],TER(x)/TER(159) +/− SEM,[1],1.06 +/− 0.00
same,Perm(x)/Perm(159) +/− SEM,[2],1.02 +/− 0.16

# Reference: US20060062758A1, “Tight junction modulator peptide PN159 for enhanced mucosal delivery of therapeutic compounds” (Nastech Pharmaceutical Comapny Inc., priority 2004, published 2006)
